Measurements taken from patent publication US8883963B2 (Cadila Healthcare Limited, priority 2007, dated 2014).

Legend:
[1] = Stability in simulated intestinal fluid; format: in vitro ADME; settings: 2 μM peptidomimetic, simulated intestinal fluid pH 7.5, 37° C.
Description: (§1) Reactions were terminated by the addition of TFA/H2O (15 mL, 10% (v/v)). […] The column was equilibrated with TFA/H20, at a flow rate of 1 mL/min.

[2] = Stability in liver microsomes; format: in vitro ADME; settings: 2 μM peptidomimetic, human liver microsomes, 37° C.; for half-life at 2 μM: pH 7.8, read-out: half-life (t1/2) when incubated with liver microsomes
Description: as §1

human glucagon receptor = target: T1, human glucagon receptor (Homo sapiens, UniProt P47871); assay: In vitro human glucagon antagonist activity (inhibition of cAMP production) in CHO/human glucagon R cells; format: cell-based; settings: with saturated concentration of glucagon peptide
T1 construct: The full-length cDNA was cloned in pcDNA3.1 (Invitrogen); expressed in transfected cells
T1 sequence (P47871 26-477): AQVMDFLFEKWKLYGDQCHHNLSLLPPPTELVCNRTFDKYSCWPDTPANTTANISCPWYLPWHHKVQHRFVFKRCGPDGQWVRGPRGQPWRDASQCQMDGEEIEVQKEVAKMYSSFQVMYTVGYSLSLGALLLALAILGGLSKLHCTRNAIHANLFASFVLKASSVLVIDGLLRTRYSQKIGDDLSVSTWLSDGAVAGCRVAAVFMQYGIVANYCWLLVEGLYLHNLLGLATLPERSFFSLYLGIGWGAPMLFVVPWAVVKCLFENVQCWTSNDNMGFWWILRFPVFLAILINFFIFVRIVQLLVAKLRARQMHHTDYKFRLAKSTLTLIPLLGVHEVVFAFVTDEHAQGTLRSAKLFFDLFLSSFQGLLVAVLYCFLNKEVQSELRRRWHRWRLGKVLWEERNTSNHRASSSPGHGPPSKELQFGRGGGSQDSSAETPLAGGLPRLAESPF

[3] = Stability in simulated gastric fluid; format: in vitro ADME; settings: 2 μM peptidomimetic, simulated gastric fluid pH 1.5, 37° C.
Description: as §1

DPP IV = DPP IV (Homo sapiens, UniProt P27487); assay: Stability against DPP IV enzyme; format: in vitro ADME; settings: 37° C.; for % degradation of peptidomimetics in 24 h when incubated with DPP-IV enzyme: 2 μM peptidomimetic; for half-life at 2 μM: DPP IV enzyme, pH 7.8, 2 μM peptidomimetic, read-out: half-life (t1/2) when incubated with DPP-IV enzyme
Chain of DPP IV (P27487 whole entry, species assumed): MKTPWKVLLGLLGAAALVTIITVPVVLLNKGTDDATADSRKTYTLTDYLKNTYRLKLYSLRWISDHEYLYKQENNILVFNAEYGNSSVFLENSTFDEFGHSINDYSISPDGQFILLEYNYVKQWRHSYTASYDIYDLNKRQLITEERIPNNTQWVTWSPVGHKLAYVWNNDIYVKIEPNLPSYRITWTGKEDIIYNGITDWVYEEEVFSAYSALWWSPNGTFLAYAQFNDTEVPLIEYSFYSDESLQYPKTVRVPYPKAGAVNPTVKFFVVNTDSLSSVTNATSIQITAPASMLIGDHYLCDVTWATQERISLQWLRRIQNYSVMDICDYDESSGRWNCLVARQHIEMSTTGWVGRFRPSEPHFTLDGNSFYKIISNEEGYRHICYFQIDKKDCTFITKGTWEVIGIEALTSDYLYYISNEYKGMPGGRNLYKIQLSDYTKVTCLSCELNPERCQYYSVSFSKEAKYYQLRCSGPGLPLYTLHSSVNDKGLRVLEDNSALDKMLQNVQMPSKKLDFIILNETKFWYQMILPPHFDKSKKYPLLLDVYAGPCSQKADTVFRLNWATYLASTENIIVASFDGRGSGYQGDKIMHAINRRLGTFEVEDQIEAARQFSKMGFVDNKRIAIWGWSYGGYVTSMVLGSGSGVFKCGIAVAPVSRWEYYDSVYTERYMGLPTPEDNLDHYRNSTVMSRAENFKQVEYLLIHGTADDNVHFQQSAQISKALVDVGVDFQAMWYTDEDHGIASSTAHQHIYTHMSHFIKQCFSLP
Description: as §1

[4] = Stability in human plasma; format: in vitro ADME; settings: 2 μM peptidomimetic, pooled human plasma, 37° C.; for half-life at 2 μM: pH 7.8, read-out: half-life (t1/2) when incubated with human plasma
Description: as §1

Human GLP-1 receptor = target: T2, Human GLP-1 receptor (Homo sapiens, UniProt P43220); assay: In vitro Human GLP-1 R agonist activity (cyclic AMP determination) in CHO/human GLP1R cells; format: cell-based
T2 construct: The full-length cDNA was cloned in pcDNA3.1(+); expressed in transfected cells
T2 sequence (P43220 24-463): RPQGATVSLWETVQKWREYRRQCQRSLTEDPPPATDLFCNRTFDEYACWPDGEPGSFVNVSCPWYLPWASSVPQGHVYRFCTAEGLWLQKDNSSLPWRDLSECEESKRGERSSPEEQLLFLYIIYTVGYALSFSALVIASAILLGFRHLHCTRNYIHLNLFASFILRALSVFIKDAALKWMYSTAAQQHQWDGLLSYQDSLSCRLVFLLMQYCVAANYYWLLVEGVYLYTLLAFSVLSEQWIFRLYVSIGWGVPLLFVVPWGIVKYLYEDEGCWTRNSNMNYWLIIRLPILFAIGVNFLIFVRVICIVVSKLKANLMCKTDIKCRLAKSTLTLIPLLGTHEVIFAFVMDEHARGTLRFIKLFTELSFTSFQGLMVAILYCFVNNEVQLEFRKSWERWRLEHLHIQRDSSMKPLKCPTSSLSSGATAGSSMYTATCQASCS

| SMILES | half-life (t1/2) when incubated with simulated intestinal fluid [1] | % degradation of peptidomimetics in 24 h when incubated with simulated intestinal fluid [1] | % degradation of peptidomimetics in 24 h when incubated with liver microsomes [2] | half-life at 2 μM [2] | Human Glucagon receptor antagonistic activity shown as inhibition of cAMP production of Glucagon peptide (human glucagon receptor; 1 nM test compound) | Human Glucagon receptor antagonistic activity shown as inhibition of cAMP production of Glucagon peptide (human glucagon receptor; 10 nM test compound) | Human Glucagon receptor antagonistic activity shown as inhibition of cAMP production of Glucagon peptide (human glucagon receptor; 100 nM test compound) | Human Glucagon receptor antagonistic activity shown as inhibition of cAMP production of Glucagon peptide (human glucagon receptor; 1 μM test compound) | Human Glucagon receptor antagonistic activity shown as inhibition of cAMP production of Glucagon peptide (human glucagon receptor; 10 μM test compound) | half-life (t1/2) when incubated with simulated gastric fluid [3] | % degradation of peptidomimetics in 24 h when incubated with simulated gastric fluid [3] | % degradation of peptidomimetics in 24 h when incubated with DPP-IV enzyme (DPP IV) | half-life at 2 μM (DPP IV) | % degradation of peptidomimetics in 24 h when incubated with human plasma [4] | half-life at 2 μM [4] | Human GLP-1 R activity (cAMP release), % activity with respect to control (Human GLP-1 receptor; 1 nM test compound) | Human GLP-1 R activity (cAMP release), % activity with respect to control (Human GLP-1 receptor; 10 nM test compound) | Human GLP-1 R activity (cAMP release), % activity with respect to control (Human GLP-1 receptor; 100 nM test compound) | Human GLP-1 R activity (cAMP release), % activity with respect to control (Human GLP-1 receptor; 1 μM test compound) | Human GLP-1 R activity (cAMP release), % activity with respect to control (Human GLP-1 receptor; 10 μM test compound) | also measured |
| --- | --- | --- | --- | --- | --- | --- | --- | --- | --- | --- | --- | --- | --- | --- | --- | --- | --- | --- | --- | --- | --- |
| CCc1cc(OC)ccc1-c1ccc(CC(C(=O)N(C)C(CCCc2ccccc2F)C(N)=O)N(C)C(=O)[C@H](CC(=O)O)NC(=O)[C@H](CO)NC(=O)[C@@H](NC(=O)C(C)(Cc2ccccc2F)NC(=O)[C@@H](NC(=O)CNC(=O)C(CCC#N)NC(=O)C(C)(C)NC(=O)[C@@H](N)Cc2c[nH]cn2)[C@H](C)O)[C@H](C)O)cc1 (single isomer, unassigned) [compound 144] | (6) h | 43% | 80% | 1 h | 5 ± 0.09 pmol/ml/μg prt | 3 ± 0.11 pmol/ml/μg prt | 0 pmol/ml/μg prt | 0 pmol/ml/μg prt | 0 pmol/ml/μg prt | (8) h | 14% | 76% | 9 h | 78% | 8 h | 55 ± 0.16% | 89 ± 0.05% | 93 ± 0.09% | 99 ± 0.02% | 99 ± 0.04% |  |
| CCc1cc(OC)ccc1-c1ccc(CC(NC(=O)[C@H](CC(=O)O)NC(=O)[C@H](CO)NC(=O)[C@@H](NC(=O)[C@H](Cc2ccccc2)NC(=O)[C@@H](NC(=O)CNC(=O)[C@H](CCC(N)=O)NC(=O)C2(NC(=O)[C@@H](N)Cc3c[nH]cn3)CC2)[C@@H](C)O)[C@@H](C)O)C(=O)NC(CCCc2ccc(F)cc2C(F)(F)F)C(N)=O)cc1 (single isomer, unassigned) [compound 72] | (6) h | 41% | 77% | 1 h | 9 ± 0.11 pmol/ml/μg prt | 6 ± 0.12 pmol/ml/μg prt | 5 ± 0.14 pmol/ml/μg prt | 3 ± 0.22 pmol/ml/μg prt | 0 pmol/ml/μg prt | (8) h | 15% | 86% | 9 h | 70% | 8 h | 45 ± 0.022% | 84 ± 0.46% | 90 ± 0.41% | 99 ± 0.66% | 99 ± 0.03% |  |
| CCc1cc(OC)ccc1-c1ccc(CC(C(=O)N(C)C(CCCc2ccccc2F)C(N)=O)N(C)C(=O)[C@H](CC(=O)O)N(C)C(=O)[C@H](CO)NC(=O)[C@@H](NC(=O)C(C)(Cc2ccccc2F)NC(=O)[C@@H](NC(=O)CNC(=O)C(CCC#N)NC(=O)C(C)(C)NC(=O)[C@@H](N)Cc2c[nH]cn2)[C@H](C)O)[C@H](C)O)cc1 (single isomer, unassigned) [compound 156] | (6) h | 40% | 78% | 1 h | 5 ± 0.01 pmol/ml/μg prt | 2 ± 0.17 pmol/ml/μg prt | 0 pmol/ml/μg prt | 0 pmol/ml/μg prt | 0 pmol/ml/μg prt | (8) h | 14% | 70% | 9 h | 71% | 8 h | 86 ± 0.11% | 99 ± 0.09% | 99 ± 0.06% | 99 ± 0.14% | 99 ± 0.19% |  |
| CCc1cc(OC)ccc1-c1ccc(CC(NC(=O)[C@H](CC(=O)O)NC(=O)[C@H](CO)NC(=O)[C@@H](NC(=O)C(C)(Cc2ccccc2F)NC(=O)[C@@H](NC(=O)CNC(=O)C(CCC#N)NC(=O)C(C)(C)NC(=O)[C@H](Cc2c[nH]cn2)NC(C)=O)[C@@H](C)O)[C@@H](C)O)C(=O)NC(CCCc2ccccc2)C(N)=O)cc1 (single isomer, unassigned) [compound 205] |  | 00% | 33% |  | 4 ± 0.16 pmol/ml/μg prt | 2 ± 0.11 pmol/ml/μg prt | 0 pmol/ml/μg prt | 0 pmol/ml/μg prt | 0 pmol/ml/μg prt |  | 00% | 00% | > 24 h | 00% | > 24 h | 96 ± 0.09% | 99 ± 0.07% | 99 ± 0.04% | 99 ± 0.01% | 99 ± 0.08% | half-life at 2 μM ([1]; read-out: half-life (t1/2) when incubated with simulated intestinal fluid): > 24 h; half-life (t1/2) when incubated with liver microsomes [2]: (5) h; half-life at 2 μM ([3]; read-out: half-life (t1/2) when incubated with simulated gastric fluid): > 24 h |
